Assay results: patent US20210230203A1, “Amphiphilic Kanamycin Compositions and Methods” (priority 2020, published 2021)
In brackets after ≈: the same amount, converted by molar mass. Like-named read-outs stand apart in the source and are kept apart here.

Experiments:
C. krusei [1] = experiment: MIC against various species, CLSI M27 & M38 (Table 4); settings: Pichia kudriavzevii, ATCC6258, read-out: Minimum inhibitory concentration 50%
Candida auris = experiment: MIC against yeast, CLSI M27 & M38 (Table 2); settings: Candidozyma auris
C. albicans = experiment: MIC against various species, CLSI M27 & M38 (Table 4); settings: Candida albicans
Candida parapsilosis = experiment: MIC against yeast, CLSI M27 & M38 (Table 2); settings: for Minimum inhibitory concentration 50%: Table 2, RPMI 0.165M MOPS, 24-72 hours; for MIC: Lodderomyces parapsilosis
Candida glabrata = experiment: MIC against yeast, CLSI M27 & M38 (Table 2); settings: Nakaseomyces glabratus
C. krusei [2] = experiment: MIC against yeast, CLSI M27 & M38 (Table 2); settings: Pichia kudriavzevii, ATCC6258, read-out: Minimum inhibitory concentration 50%
Cryptococcus neoformans = experiment: MIC against yeast, CLSI M27 & M38 (Table 2); settings: Cryptococcus neoformans
C. parapsilosis = experiment: MIC against various species, CLSI M27 & M38 (Table 4); settings: Lodderomyces parapsilosis, ATCC22019, read-out: Minimum inhibitory concentration 50%
C. auris = experiment: as above; settings: Candidozyma auris
Candida guillermondii = experiment: MIC against yeast, CLSI M27 & M38 (Table 2); settings: Candida
Fusarium = experiment: MIC against various species, CLSI M27 & M38 (Table 4); type: cell-based; settings: 24-72 hours
Scedosporium = experiment: as above; settings: Scedosporium
Candida albicans 64124 = experiment: MIC against fungal strains (Table 1); type: cell-based; settings: read-out: Minimum inhibitory concentration
L. prolificans = experiment: MIC against various species, CLSI M27 & M38 (Table 4); settings: Lomentospora prolificans, read-out: Minimum inhibitory concentration 100%
P. variatii = experiment: MIC against filamentous and dimorphic fungi, CLSI M27 & M38 (Table 3); type: cell-based, Paecilomyces variotii; settings: Paecilomyces variotii, P. variatii MYA-3630, RPMI 0.165M MOPS, 24-72 hours, read-out: Minimum inhibitory concentration 100%
[3] = tested on: Cryptococcus neoformans H99; experiment: MIC against fungal strains (Table 1); type: cell-based; settings: Cryptococcus neoformans, H99, read-out: Minimum inhibitory concentration
P. variotil = experiment: MIC against various species, CLSI M27 & M38 (Table 4); type: cell-based, Paecilomyces variotii; settings: Paecilomyces variotii, P. variotil QC, RPMI 0.165M MOPS, 24-72 hours, read-out: Minimum inhibitory concentration 100%
Rhodotorula pilimanae = experiment: MIC against fungal strains (Table 1); type: cell-based; settings: Rhodotorula mucilaginosa, read-out: Minimum inhibitory concentration
Candida albicans MYA2876 = experiment: MIC against fungal strains (Table 1); type: cell-based; settings: Candida albicans, MYA2876, read-out: Minimum inhibitory concentration
Histoplasma capsulatum = experiment: microbe, parasite or virus in culture; type: cell-based; settings: Histoplasma capsulatum, Table 3, RPMI 0.165M MOPS, 24-72 hours
B. dermatitidis = experiment: MIC against various B. dermatitidis isolates, CLSI M27 & M38; settings: Blastomyces dermatitidis, RPMI 0.165M MOPS, 24-72 hours
A. furnigatus = experiment: MIC against various species, CLSI M27 & M38 (Table 4); settings: Aspergillus fumigatus
Coccidioldes sp. = experiment: microbe, parasite or virus in culture; type: cell-based, Coccidioides species; settings: Coccidioides, Table 3, RPMI 0.165M MOPS, 24-72 hours
[4] = tested on: Fusarium graminearum B4-5A; experiment: microbe, parasite or virus in culture; type: cell-based; settings: Fusarium graminearum, B45A, read-out: Minimum inhibitory concentration

SMILES: OC(Cn1cncn1)(Cn1cncn1)c1ccc(F)cc1F [Fluconazole, reference compound]
- MIC (C. krusei [1]): > 16 µg/mL
- MIC (Candida auris; read-out: Minimum inhibitory concentration 50%, Candida auris CAU1, RPMI 0.165M MOPS, 24-72 hours): 2 µg/mL (≈ 6.53 µM)
- MIC (Candida auris; read-out: Minimum inhibitory concentration 50%, Candida auris CAU2, RPMI 0.165M MOPS, 24-72 hours): 1 µg/mL (≈ 3.27 µM)
- MIC (Candida auris; read-out: Minimum inhibitory concentration 50%, Candida auris CAU3, RPMI 0.165M MOPS, 24-72 hours): 0.5 µg/mL (≈ 1.63 µM)
- MIC (Candida auris; read-out: Minimum inhibitory concentration 50%, Candida auris CAU4, RPMI 0.165M MOPS, 24-72 hours): > 64 µg/mL
- MIC (Candida auris; read-out: Minimum inhibitory concentration 50%, Candida auris CAU5, RPMI 0.165M MOPS, 24-72 hours): 16 µg/mL (≈ 52.2 µM)
- MIC (Candida auris; read-out: Minimum inhibitory concentration 50%, Candida auris CAU6, RPMI 0.165M MOPS, 24-72 hours): 2 µg/mL (≈ 6.53 µM)
- MIC (Candida auris; read-out: Minimum inhibitory concentration 50%, Candida auris CAU7, RPMI 0.165M MOPS, 24-72 hours): 2 µg/mL (≈ 6.53 µM)
- MIC (Candida auris; read-out: Minimum inhibitory concentration 50%, Candida auris DI17-46, RPMI 0.165M MOPS, 24-72 hours): > 64 µg/mL
- MIC (Candida auris; read-out: Minimum inhibitory concentration 50%, Candida auris DI17-47, RPMI 0.165M MOPS, 24-72 hours): > 64 µg/mL
- MIC (Candida auris; read-out: Minimum inhibitory concentration 50%, Candida auris DI17-48, RPMI 0.165M MOPS, 24-72 hours): 2 µg/mL (≈ 6.53 µM)
- MIC (C. albicans; read-out: Minimum inhibitory concentration 50%, C. albicans CA1, RPMI 0.165M MOPS, 24-72 hours): ≤ 0.125 µg/mL
- MIC (C. albicans; read-out: Minimum inhibitory concentration 50%, C. albicans CA2, RPMI 0.165M MOPS, 24-72 hours): ≤ 0.125 µg/mL
- MIC (C. albicans; read-out: Minimum inhibitory concentration 50%, C. albicans CA3, RPMI 0.165M MOPS, 24-72 hours): > 64 µg/mL
- Minimum inhibitory concentration 50% (Candida parapsilosis; Candida parapsilosis CP2): 0.5 µg/mL (≈ 1.63 µM)
- Minimum inhibitory concentration 50% (Candida parapsilosis; Candida parapsilosis CP3): 0.5 µg/mL (≈ 1.63 µM)
- MIC (Candida parapsilosis; ATCC22019, read-out: Minimum inhibitory concentration 50%): 1 µg/mL (≈ 3.27 µM)
- MIC (Candida parapsilosis; read-out: Minimum inhibitory concentration 50%): 0.5 µg/mL (≈ 1.63 µM)
- MIC (Candida glabrata; read-out: Minimum inhibitory concentration 50%, Candida glabrata CG1, RPMI 0.165M MOPS, 24-72 hours): > 64 µg/mL
- MIC (Candida glabrata; read-out: Minimum inhibitory concentration 50%, Candida glabrata CG2, RPMI 0.165M MOPS, 24-72 hours): 8 µg/mL (≈ 26.1 µM)
- MIC (Candida glabrata; read-out: Minimum inhibitory concentration 50%, Candida glabrata CG3, RPMI 0.165M MOPS, 24-72 hours): 64 µg/mL (≈ 209 µM)
- MIC (C. krusei [2]): 16 µg/mL (≈ 52.2 µM)
- MIC (Cryptococcus neoformans; read-out: Minimum inhibitory concentration 50%, Cryptococcus neoformans CN1, RPMI 0.165M MOPS, 24-72 hours): 8 µg/mL (≈ 26.1 µM)
- MIC (Cryptococcus neoformans; read-out: Minimum inhibitory concentration 50%, Cryptococcus neoformans H99, RPMI 0.165M MOPS, 24-72 hours): 16 µg/mL (≈ 52.2 µM)
- MIC (Cryptococcus neoformans; read-out: Minimum inhibitory concentration 50%, Cryptococcus neoformans USC1597, RPMI 0.165M MOPS, 24-72 hours): 2 µg/mL (≈ 6.53 µM)
- MIC (C. parapsilosis): 1 µg/mL (≈ 3.27 µM)
- MIC (C. auris; read-out: Minimum inhibitory concentration 50%, C. auris DI17-46, RPMI 0.165M MOPS, 24-72 hours): > 64 µg/mL
- MIC (C. auris; read-out: Minimum inhibitory concentration 50%, C. auris DI17-47, RPMI 0.165M MOPS, 24-72 hours): > 64 µg/mL
- MIC (C. auris; read-out: Minimum inhibitory concentration 50%, C. auris DI17-48, RPMI 0.165M MOPS, 24-72 hours): 2 µg/mL (≈ 6.53 µM)
- MIC (Candida guillermondii; read-out: Minimum inhibitory concentration 50%, Candida guillermondii CGUI1, RPMI 0.165M MOPS, 24-72 hours): 1 µg/mL (≈ 3.27 µM)
- MIC (Candida guillermondii; read-out: Minimum inhibitory concentration 50%, Candida guillermondii CGUI2, RPMI 0.165M MOPS, 24-72 hours): 2 µg/mL (≈ 6.53 µM)
- MIC (Candida guillermondii; read-out: Minimum inhibitory concentration 50%, Candida guillermondii CGUI3, RPMI 0.165M MOPS, 24-72 hours): 2 µg/mL (≈ 6.53 µM)

SMILES: C[C@@H](c1ncncc1F)[C@](O)(Cn1cncn1)c1ccc(F)cc1F [Voriconazole, reference compound]
- MIC (Fusarium; Fusarium FO1, RPMI 0.165M MOPS, read-out: Minimum inhibitory concentration 100%): > 16 µg/mL
- Minimum inhibitory concentration 100% (Fusarium; Fusarium FO2, RPMI 0.165M MOPS): >16 µg/mL
- Minimum inhibitory concentration 100% (Fusarium; Fusarium FS1, RPMI 0.165M MOPS): >16 µg/mL
- MIC (Scedosporium; read-out: Minimum inhibitory concentration 100%, Scedosporium SA1, RPMI 0.165M MOPS, 24-72 hours): 1 µg/mL (≈ 2.86 µM)
- MIC (Scedosporium; read-out: Minimum inhibitory concentration 100%, Scedosporium SB1, RPMI 0.165M MOPS, 24-72 hours): 2 µg/mL (≈ 5.73 µM)
- MIC (Candida albicans 64124): > 256 µg/mL
- MIC (L. prolificans): > 16 µg/mL
- MIC (P. variatii): 0.125 µg/mL (≈ 0.358 µM)
- MIC [3]: 0.125 µg/mL (≈ 0.358 µM)
- MIC (P. variotil): 0.125 µg/mL (≈ 0.358 µM)
- MIC (Rhodotorula pilimanae): 8 µg/mL (≈ 22.9 µM)
- MIC (Candida albicans MYA2876): 0.125 µg/mL (≈ 0.358 µM)
- MIC (Histoplasma capsulatum; read-out: Minimum inhibitory concentration 100%, Histoplasma capsulatum HC1): 0.125 µg/mL (≈ 0.358 µM)
- MIC (Histoplasma capsulatum; read-out: Minimum inhibitory concentration 100%, Histoplasma capsulatum HC2): ≤ 0.03 µg/mL
- MIC (Histoplasma capsulatum; read-out: Minimum inhibitory concentration 100%, Histoplasma capsulatum HC3): ≤ 0.03 µg/mL
- MIC (B. dermatitidis; read-out: Minimum inhibitory concentration 100%, B. dermatitidis BD1): 0.06 µg/mL (≈ 0.172 µM)
- MIC (B. dermatitidis; read-out: Minimum inhibitory concentration 100%, B. dermatitidis BD2): ≤ 0.03 µg/mL
- MIC (B. dermatitidis; read-out: Minimum inhibitory concentration 100%, B. dermatitidis BD3): 0.125 µg/mL (≈ 0.358 µM)
- MIC (A. furnigatus; read-out: Minimum inhibitory concentration 100%, A. furnigatus AF1, RPMI 0.165M MOPS, 24-72 hours): 1 µg/mL (≈ 2.86 µM)
- MIC (A. furnigatus; read-out: Minimum inhibitory concentration 100%, A. furnigatus AF2, RPMI 0.165M MOPS, 24-72 hours): 8 µg/mL (≈ 22.9 µM)
- MIC (A. furnigatus; read-out: Minimum inhibitory concentration 100%, A. furnigatus AF3, RPMI 0.165M MOPS, 24-72 hours): 4 µg/mL (≈ 11.5 µM)
- MIC (Coccidioldes sp.; read-out: Minimum inhibitory concentration 100%, Coccidioldes sp. Cocci1): 0.25 µg/mL (≈ 0.716 µM)
- MIC (Coccidioldes sp.; read-out: Minimum inhibitory concentration 100%, Coccidioldes sp. Cocci2): 2 µg/mL (≈ 5.73 µM)
- MIC (Coccidioldes sp.; read-out: Minimum inhibitory concentration 100%, Coccidioldes sp. DI17-143): 0.125 µg/mL (≈ 0.358 µM)
- MIC [4]: 32 µg/mL (≈ 91.6 µM)
